# Measurements as given in US10988524B2, “Modified relaxin B chain peptides and their therapeutic use” (priority 2018, dated 2021).
# Non-standard residues stand in square brackets, D forms with d. Residues, ends and D or L forms follow the SMILES beside them. Nle = CCCC[C@H](N)C(=O)O; Aib = CC(C)(N)C(=O)O
# Target: T1, RXFP1 (Homo sapiens, UniProt Q9HBX9)
# T1 sequence (Q9HBX9 1-757): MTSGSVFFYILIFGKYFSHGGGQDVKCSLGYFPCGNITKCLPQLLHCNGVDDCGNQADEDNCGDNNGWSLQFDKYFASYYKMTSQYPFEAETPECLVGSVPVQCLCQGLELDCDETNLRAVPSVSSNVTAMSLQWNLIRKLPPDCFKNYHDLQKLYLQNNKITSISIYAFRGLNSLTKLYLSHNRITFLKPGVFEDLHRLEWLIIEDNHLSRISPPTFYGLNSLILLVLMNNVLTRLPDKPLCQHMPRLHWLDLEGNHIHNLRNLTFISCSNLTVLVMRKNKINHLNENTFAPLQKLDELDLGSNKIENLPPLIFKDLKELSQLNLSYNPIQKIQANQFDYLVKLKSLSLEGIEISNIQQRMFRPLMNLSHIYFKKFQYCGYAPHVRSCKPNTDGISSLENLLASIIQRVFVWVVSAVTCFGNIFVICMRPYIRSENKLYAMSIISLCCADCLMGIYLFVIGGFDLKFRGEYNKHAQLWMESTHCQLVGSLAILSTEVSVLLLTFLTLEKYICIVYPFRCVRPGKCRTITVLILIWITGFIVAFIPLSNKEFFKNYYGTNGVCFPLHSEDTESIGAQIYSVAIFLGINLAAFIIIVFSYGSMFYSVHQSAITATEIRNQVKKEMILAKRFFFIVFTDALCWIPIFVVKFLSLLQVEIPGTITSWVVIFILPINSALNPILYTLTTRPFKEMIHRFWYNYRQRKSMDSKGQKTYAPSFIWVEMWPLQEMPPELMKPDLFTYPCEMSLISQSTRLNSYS
# Assay: OVCAR5 cAMP assay (RXFP1 agonist activity, HTRF)
# Conditions: OVCAR-5, read-out: cAMP assay in OVCAR 5 cells Emax, maximal intracellular cAMP relative to H2-relaxin in the same test occasion
row,Structure (SMILES),Emax
1,CC[C@H](C)[C@H](NC(=O)C(C)(C)NC(=O)[C@H](C)NC(=O)[C@H](CCCNC(=N)N)NC(=O)[C@@H](NC(=O)[C@H](CCCCN)NC(=O)[C@H](CCC(=O)O)NC(=O)[C@H](CCCNC(=N)N)NC(=O)CNC(=O)[C@H](CCC(=O)O)NC(=O)[C@H](CC(C)C)NC(C)=O)C(C)C)C(=O)NC(C)(C)C(=O)NC(C)(C)C(=O)N[C@@H](CCC(=O)O)C(=O)NCC(=O)N[C@@H](CCSC)C(=O)N[C@@H](CO)C(=O)N[C@H](C(=O)N[C@@H](Cc1c[nH]c2ccccc12)C(=O)N[C@@H](CO)C(=O)NC(C)(C)C(=O)N[C@@H](CCCNC(=N)N)C(N)=O)[C@@H](C)O [compound 43] (Ac-LEGREKVRA[Aib]I[Aib][Aib]EGMSTWS[Aib]R-NH2),104%
2,CCCC[C@H](NC(=O)CNC(=O)[C@H](CCC(=O)O)NC(=O)C(C)(C)NC(=O)C(C)(C)NC(=O)[C@@H](NC(=O)[C@H](CCC(N)=O)NC(=O)[C@H](C)NC(=O)[C@H](CCCNC(=N)N)NC(=O)[C@@H](NC(=O)[C@H](CCCCN)NC(=O)[C@H](CCC(=O)O)NC(=O)[C@H](CCCNC(=N)N)NC(=O)CNC(=O)[C@H](CCC(=O)O)NC(=O)[C@H](CC(C)C)NC(C)=O)C(C)C)[C@@H](C)CC)C(=O)N[C@@H](CO)C(=O)N[C@H](C(=O)N[C@@H](Cc1c[nH]c2ccccc12)C(=O)N[C@@H](CO)C(=O)NC(C)(C)C(=O)N[C@@H](CCCNC(=N)N)C(=O)N[C@@H](CCCCN)C(N)=O)[C@@H](C)O [compound 44] (Ac-LEGREKVRAQI[Aib][Aib]EG[Nle]STWS[Aib]RK-NH2),101%
3,CC[C@H](C)[C@H](NC(=O)[C@H](CCC(N)=O)NC(=O)[C@H](C)NC(=O)[C@H](CCCNC(=N)N)NC(=O)[C@@H](NC(=O)[C@H](CCCCN)NC(=O)[C@H](CCC(=O)O)NC(=O)[C@H](CCCNC(=N)N)NC(=O)CNC(=O)[C@H](CCC(=O)O)NC(=O)[C@H](CC(C)C)NC(C)=O)C(C)C)C(=O)NC(C)(C)C(=O)NC(C)(C)C(=O)N[C@@H](CCC(=O)O)C(=O)NCC(=O)N[C@@H](CCSC)C(=O)N[C@@H](CO)C(=O)N[C@H](C(=O)N[C@@H](Cc1c[nH]c2ccccc12)C(=O)N[C@@H](CO)C(=O)NC(C)(C)C(=O)N[C@@H](CCCNC(=N)N)C(=O)N[C@@H](CCCCN)C(N)=O)[C@@H](C)O [compound 45] (Ac-LEGREKVRAQI[Aib][Aib]EGMSTWS[Aib]RK-NH2),98%
4,CC[C@H](C)[C@H](NC(=O)[C@H](CCC(N)=O)NC(=O)[C@H](C)NC(=O)[C@H](CCCNC(=N)N)NC(=O)[C@@H](NC(=O)[C@H](CCCCN)NC(=O)[C@H](CCC(=O)O)NC(=O)[C@H](CCCNC(=N)N)NC(=O)CNC(=O)[C@H](CCC(=O)O)NC(=O)[C@H](CC(C)C)NC(C)=O)C(C)C)C(=O)NC(C)(C)C(=O)NC(C)(C)C(=O)N[C@@H](CCC(=O)O)C(=O)NCC(=O)N[C@@H](CCSC)C(=O)N[C@@H](CO)C(=O)N[C@@H](CCCCN)C(=O)N[C@@H](Cc1c[nH]c2ccccc12)C(=O)N[C@@H](CO)C(=O)NC(C)(C)C(=O)N[C@@H](CCCNC(=N)N)C(N)=O [compound 46] (Ac-LEGREKVRAQI[Aib][Aib]EGMSKWS[Aib]R-NH2),82%
5,CCCC[C@H](NC(=O)CNC(=O)[C@H](CCC(=O)O)NC(=O)C(C)(C)NC(=O)C(C)(C)NC(=O)[C@@H](NC(=O)[C@H](CCCCNC(C)=O)NC(=O)[C@H](C)NC(=O)[C@H](CCCNC(=N)N)NC(=O)[C@@H](NC(=O)[C@H](CCCCN)NC(=O)[C@H](CCC(=O)O)NC(=O)[C@H](CCCNC(=N)N)NC(=O)CNC(=O)[C@H](CCC(=O)O)NC(=O)[C@H](CC(C)C)NC(C)=O)C(C)C)[C@@H](C)CC)C(=O)N[C@@H](CO)C(=O)N[C@H](C(=O)N[C@@H](Cc1c[nH]c2ccccc12)C(=O)N[C@@H](CO)C(=O)NC(C)(C)C(=O)N[C@@H](CCCNC(=N)N)C(=O)N[C@@H](CCCCN)C(N)=O)[C@@H](C)O [compound 47] (Ac-LEGREKVRAK(Ac)I[Aib][Aib]EG[Nle]STWS[Aib]RK-NH2),94%
